Laboratory results: patent US20060073541A1, “Lipophilic dyes and their application for detection of myelin” (priority 2004, published 2006)

Columns and labels:
myelin [1] = assay: Myelin staining in combination with NeuroTrace Nissl stains and DAPI on mouse brain cryosections; settings: 500 nM dye, NeuroTrace Nissl stain 1:300, DAPI
Procedure: (§1) A 16 μm mouse brain cryosection, cross section through diencephalon, was rehydrated for 20 minutes in PBT (0.5 M phosphate-buffered saline containing 0.2% Triton X-100 and 0.2% BSA). The three dyes were mixed into the final stain solution (in PBS), such that there was a concentration of 500 nM of Compound 1, 1:300 dilution of NeuroTrace Red Nissl Stain, and 0.1 μg/ml DAPI. Sections were labeled in this combination for 20 minutes, then washed well in PBT prior to mounting in Prolong antifade mounting medium (Molecular Probes, Inc.). Images were collected on a Nikon E800 epifluorescence upright microscope using a Princeton MicroMax cooled CCD digital camera, MetaMorph acquisition software, and Adobe Photoshop image analysis software.
as §1, with “(0.5M” for “(0.5 M”, “nM” for “nM of”, “2,” for “1,”
12 μm thick mouse brain cryosections, either cross-sectioned through the mesencephalon or sagittal sections, were rehydrated and permeabilized for 20 minutes in PBT (PBS with 0.2% Triton X-100 and 0.2% BSA) then labeled 30 minutes with 500 nM Compound 4 in PBS. Sections were washed 3×10 minutes with PBT then labeled 20 minutes with NeuroTrace Green Nissl Stain (diluted 1:300 from stock). Sections were washed 3×5 minutes in PBS, labeled 1.5 minutes with 0.2 μg/mL DAPI, washed 3×5 minutes in PBS again, and mounted in Prolong Gold antifade mounting medium. Samples were compared to sections labeled with Compound 1 and Compound 2 as controls. Images were collected on a Nikon E800 epifluorescence upright microscope using a Princeton MicroMax cooled CCD digital camera, MetaMorph acquisition software, and Adobe Photoshop image analysis software.

myelin [2] = assay: Myelin staining of mouse brain cryosections, label pattern comparison; settings: for labeling of myelin (selectivity): 1 μM or 500 nM in PBS; for myelin label pattern / non-specific background labeling / single axon labeling: 16 μm mouse brain cryosections, dyes 500 nM 20 minutes; for myelin label pattern: sagittal and cross sections, anti-MBP 5 μg/ml overnight; for emission wavelength (Em) / excitation wavelength (Ex): dye on labeled mouse brain cryosections
Procedure: In an exemplary embodiment, the present method stains and detects myelin in brain tissue sections that have been immobilized on a glass slide. In this instance a protocol for labeling brain cryosections comprises: • 1. Rehydrate and/or Permeabilize. Bring tissue sections on slides to room temperature, then rehydrate in either PBS (phosphate-buffered saline, 0.05M, pH 7.4) or PBT (PBS+0.2% Triton X-100) for at least 20 minutes. Permeabilization with Triton X-100 is not necessary for labeling using the present lipophilic dyes, but is likely necessary for any other counterstains or antibodies to be used. • 2. Prepare Label Solution. Prepare the labeling solution by diluting the stock solution 300-fold with PBS to make a final recommended concentration of 500 nM dye. • 3. Label Step. Flood the section with labeling solution and stain for 20 minutes at room temperature. • 4. Wash. When labeling is complete, remove solution, rinse in PBS, and wash 3×10 minutes with PBS. • 5. Counterstaining and Mounting. At this point tissues can be counterstained as necessary, or mounted with an aqueous antifade mounting medium such as ProLong or ProLong Gold reagent.
Use of this antibody allows for specific labeling with which to compare the present lipophilic dyes and chromogenic method label patterns. […] Tissue was sectioned on a cryostat and mounted on Plus slides and stored at −80° C. Upon use, tissue sections were brought to room temperature and rehydrated in PBT (0.5 M phosphate-buffered saline containing 0.2% Triton X-100 and 0.2% BSA) for 30 minutes. Sections were blocked for 1 hour in 5% normal goat serum/3% BSA/PBT, then labeled overnight at 4° using 5 μg/ml rat anti-MBP primary antibody from Chemicon (MAB386). After washing in PBT, tissues were washed in Image-iT FX signal enhancer (136933, Molecular Probes, Inc., Eugene, Oreg.) for 30 minutes, then washed again in PBT. Sections were incubated in Alexa Fluor 488 goat anti-rat secondary antibody (A11006, Molecular Probes, Inc.) for 2 hours, washed in PBT, and mounted in ProLong antifade solution (P7481, Molecular Probes, Inc.). Images were collected on a Nikon E800 epifluorescence upright microscope using a Princeton MicroMax cooled CCD digital camera, MetaMorph acquisition software, and Adobe Photoshop image analysis software (Ex 495/Em 519, FITC Filter Set).
Other than antibody labeling techniques, myelin labeling is traditionally performed using long and complicated chromogenic (non-fluorescent) dye protocols. One of the most common is the Loyez Technique. A more recent, and more specific method is Schmued's Gold Chloride Technique. These two methods were used for comparison to the present dyes. • I. Schmued's Gold Chloride Technique. Based on a method by Laurence C. Schmued [1990. A rapid, sensitive histochemical stain for myelin in frozen brain sections. J. Histochem Cytochem. 38(5): 717-720]. Tissues were rehydrated in PBT for 30 minutes, then labeled for 3.5 hours in 0.2% gold chloride in 0.02 M neutral phosphate buffer with 0.9% sodium chloride. After a water rinse, tissues were post-fixed for 5 minutes in 2.5% sodium thiosulfate, rinsed in running tap water for 30 minutes, and mounted in mowiol. Images were collected using transmitted light on the system outlined in part A of this example. Myelin was labeled a brown-red color. […] Loyez Technique. Adapted from H. C. Cook. 1974. […] London: Butterworths. pp. 161-162. Tissues were rehydrated and permeabilized 30 minutes in PBT, then treated with 4% iron alum overnight at room temperature. After a water wash, tissues were stained overnight in a 10% alcoholic haematoxylin solution with lithium carbonate at room temperature. After two 10-minute water washes, tissues were destained for approximately 20 seconds in 4% iron alum, and washed in water. After a final wash in borax-ferricyanide to colorize the myelin blue-black, tissues were washed in water and mounted in mowiol. Images were scanned as in section B. I. Of this example. […]

myelin [3] = assay: Demyelinated mouse model test: control versus shiverer mouse brain cryosections
Procedure: To illustrate the use of the present dyes for studying myelin diseases such as multiple sclerosis, adrenoleukodystrophy, Guillain-Barre syndrome, and others, Compound 1 was compared against rat anti-myelin basic protein (anti-MBP) primary antibody on control mouse brains versus shiverer mouse brain. […] Brain tissues were cryosectioned at 16 μm and mounted on PLUS slides. Control and shiverer tissues were treated either with anti-MBP primary and Alexa Fluor 488 goat anti-rat secondary or Compound 1. Tissues treated with the antibody were rehydrated and permeabilized in PBT (0.05 M phosphate buffered saline with 0.2% Triton X-100 and 0.2% bovine serum albumin (BSA)) for 20 minutes, then blocked in 5% normal goat serum/3% BSA/PBT for 1 hour. Tissues were then incubated overnight at 4° C. with 5 μg/mL rat anti-MBP (Chemicon, MAB386) in blocking solution. After washing 3×10 minutes in PBT, they were then incubated for 2 hours with 5 μg/mL Alexa Fluor 488 goat anti-rat secondary at room temperature. After further washing 3×10 minutes in PBT, tissues were counterstained with 0.2 μg/ml DAPI, washed 3×5 minutes in PBT, and mounted with ProLong antifade mounting medium (Invitrogen P36930). Tissues that were labeled with Compound 1 were rehydrated and permeabilized as above, then labeled 20 minutes with 500 nM Compound 1 and 0.2 μg/mL DAPI (together) in PBT. Tissues were washed 3×10 minutes PBT, then mounted as above. Images were collected on a Nikon E800 epifluorescence upright microscope using a Princeton MicroMax cooled CCD digital camera, an Omega XF100-2 FITC filter set, MetaMorph acquisition software, and Adobe Photoshop image analysis software. […] Myelin labeling was negative, as expected, for shiverer mice for both anti-MBP and Compound 1, illustrating that the present dyes work as well as anti-MBP for demyelination determination.

myelin [4] = assay: Detection of myelin in combination with antibodies (anti-GFAP) and DAPI on mouse brain cryosection
Procedure: To test whether use of Compound 1 interrupts antibody binding, Compound 1 was used in conjunction with anti-GFAP on mouse brain sections. A 16 μm mouse brain cryosection, cross-section through the rostral mesencephalon, was rehydrated and permeabilized in PBT (0.05 M phosphate buffered saline with 0.2% Triton X-100 and 0.2% BSA) for 20 minutes, the washed for 30 minutes with Image-iT FX Signal Enhancer (Molecular Probes, Inc.) to block non-specific Alexa Fluor dye binding to myelin. After washing in PBT, the section was blocked for 1 hour in 5% normal goat serum/0.2% Triton X-100/3% BSA, then incubated overnight at 4° C. in 5 μg/ml mouse anti-GFAP (glial fibrillary acidic protein) from Molecular Probes (A21282) in blocking buffer. Sections were washed well in PBT, then incubated in Alexa Fluor 680 goat anti-mouse secondary antibody (A21057, Molecular Probes, Inc.) for 2 hours. After washing in PBT, sections were labeled in 500 nM of Compound 1 for 20 minutes with 0.1 μg/ml DAPI. After a final wash in PBT, sections were mounted in Prolong antifade mountant (Molecular Probes, inc.). Images were collected on a Nikon E800 epifluorescence upright microscope using a Princeton MicroMax cooled CCD digital camera, MetaMorph acquisition software, and Adobe Photoshop image analysis software.

Compound	disruption of labels / compatibility with NeuroTrace Nissl stain and DAPI (myelin [1])	label pattern in combination with NeuroTrace Nissl stain and DAPI (myelin [1])	labeling of myelin (selectivity) (myelin [2]; 12 μm mouse brain cryosections)	myelin label pattern (myelin [2])	non-specific background labeling (myelin [2])	single axon labeling (myelin [2])	emission wavelength (Em) (myelin [2])	excitation wavelength (Ex) (myelin [2])	staining brightness compared with anti-MBP (myelin [3]; control mice brain)	myelin labeling in control mice (myelin [3]; control mice brain, 16 μm cryosections, 500 nM dye 20 minutes or 5 μg/mL anti-MBP overnight)	background labeling (myelin [3]; general membrane labeling)	myelin labeling in shiverer mice (myelin [3]; shiverer (demyelinated) mouse brain, 16 μm cryosections)	label pattern in conjunction with anti-GFAP (myelin [4]; 500 nM 20 minutes with 0.1 μg/ml DAPI after anti-GFAP / Alexa Fluor 680 secondary, rostral mesencephalon cross-section)	inhibition of staining pattern (myelin [4]; 500 nM dye with anti-GFAP antibody labeling)	spectral qualities (myelin [2]; 12 μm mouse brain cryosections)	concentration sufficient for labeling with minimal background (myelin [2]; 12 μm mouse brain cryosections, in PBS)
CCCCN(CCCC)c1ccc(C=Cc2cc[n+](CCC[N+](CC)(CC)CC)cc2)cc1 [Compound 1]	no evidence of disruption of any of the three labels	tracts in the fornix, fornix superior, capsula interna, and striatum	selective myelin labeling	specific myelin labeling in expected axon bundles and tracts	some non-specific background labeling was visualized	single axon labeling was not seen	594 nm	479 nm	twice as bright	labeled myelin in control mice	slight background labeling	negative	labeled axon tracts and bundles	no inhibition of staining pattern by either label		
CCCCN(CCCC)c1ccc(C=CC=CC=Cc2cc[n+](CCC[N+](CC)(CC)CC)cc2)cc1 [Compound 2]	no evidence of disruption of any of the three labels	tracts in the fornix, fornix superior, capsula interna, and striatum	selective myelin labeling	specific myelin labeling in expected axon bundles and tracts	some non-specific background labeling was visualized	single axon labeling was not seen	734 nm	558 nm								
CCCCN(CCCC)c1ccc(C=CC=CC=Cc2cc[n+](CCC[N+](C)(C)C)cc2)cc1 [Compound 4]	compatible with NeuroTrace Green Nissl Stain labeling and DAPI labeling	label pattern comparable to the control dyes	highly selective labeling of myelin												comparable to Compound 2	500 nM
